Reference: patent publication US20070049564A1 (Wyeth, priority 2005, published 2007)

Columns and labels:
Experiment in all cases: MIC, broth microdilution
E. coli GC 2231 = details: Escherichia coli
S. aureus GC 1079 = details: Staphylococcus aureus
S. aureus GC 1131 = details: Staphylococcus aureus
S. aureus GC 6335 = details: Staphylococcus aureus
S. pyogenes GC 4563 = details: Streptococcus pyogenes
E. faecalis GC 2267 = details: Enterococcus faecalis
S. pneumoniae+ GC 4465 = details: Streptococcus pneumoniae
E. faecium GC 2243 = details: Enterococcus faecium
S. typhimurium GC 2172 = details: Salmonella enterica, TYPHIMURIUM
E. coli GC 2232 = details: Escherichia coli
S. aureus GC 6466 = details: Staphylococcus aureus
S. pneumoniae* GC 4465 = details: Streptococcus pneumoniae
E. coli GC 3226 = details: Escherichia coli
S. epidermidis GC 4935 = details: Staphylococcus epidermidis
c. albicans GC 3066 = tested on: c. albicans GC 3066
E. coli GC 2272 = details: Escherichia coli
S. aureus GC 2216 = details: Staphylococcus aureus
Protocol: Antimicrobial susceptibility testing. The in vitro activities of the antibiotics are determined by the broth microdilution method as recommended by the National Committee for Clinical Laboratory Standards (NCCLS) (1). Mueller-Hinton II broth (MHBII)(BBL Cockeysville, Md.) is the medium employed in the testing procedures. Microtiter plates containing serial dilutions of each antimicrobial agent are inoculated with each organism to yield the appropriate density (10^5 CFU/ml) in a 100 μl final volume. The plates are incubated for 18-22 hours at 35° C. in ambient air. […] Standard Pharmacological Test Procedures
Presented in Tables I-XIII are representative compounds of Formula I which were evaluated against a panel of 40 selected gram-positive and gram-negative bacteria strains by pre-incubation in water, mouse serum or human serum. Representative compounds were first incubated in mouse serum for an hour prior to the in vitro testing against a panel of selected gram-positive and gram-negative bacteria strains. All compounds were also pre-incubated in water for an hour prior to testing as control. Representative compounds of Formula I were incubated in human serum prior to MIC determination.

E. faecium GC 4556 = details: Enterococcus faecium
E. coli GC 2234 = details: Escherichia coli

Measured: MIC

CN(C)c1cc(NC(=O)CN(C(=O)OCOC(=O)C2CCC2)C(C)(C)C)c(O)c2c1C[C@H]1C[C@H]3[C@H](N(C)C)C(O)=C(C(N)=O)C(=O)[C@@]3(O)C(O)=C1C2=O [Example 62, ({[(2-{[(5aR,6aS,7S,10aS)-9-(aminocarbonyl)-4,7-bis(dimethylamino)-1,8,10a,11-tetrahydroxy-10,12-dioxo-5,5a,6,6a,7,10,10a,12-octahydrotetracen-2-yl]amino}-2-oxoethyl)(tert-butyl)amino]carbonyl}oxy)methyl cyclobutanecarboxylate]
8 µg/mL: E. coli GC 2231; GC2231, pre-incubation in water | E. coli GC 2232; GC2232, pre-incubation in water | E. coli GC 3226; GC3226, pre-incubation in water | E. coli GC 2272; GC2272, pre-incubation in water | E. coli GC 2234; GC2234, pre-incubation in water
0.12 µg/mL: S. pyogenes GC 4563; GC4563, pre-incubation in human serum | S. pneumoniae* GC 4465; pre-incubation in human serum | S. pneumoniae* GC 4465; pre-incubation in mouse serum | S. pneumoniae* GC 4465; pre-incubation in water
4 µg/mL: E. coli GC 2231; GC2231, pre-incubation in human serum | E. coli GC 3226; GC3226, pre-incubation in human serum | E. coli GC 2272; GC2272, pre-incubation in human serum
0.25 µg/mL: S. pyogenes GC 4563; GC4563, pre-incubation in mouse serum | S. pyogenes GC 4563; GC4563, pre-incubation in water | S. aureus GC 6466; GC6466, pre-incubation in water
0.5 µg/mL: E. coli GC 2231; GC2231, pre-incubation in mouse serum | S. aureus GC 1079; GC1079, pre-incubation in human serum | S. aureus GC 1079; GC1079, pre-incubation in water | S. aureus GC 1131; GC1131, pre-incubation in human serum | S. aureus GC 1131; GC1131, pre-incubation in mouse serum | S. aureus GC 1131; GC1131, pre-incubation in water | S. aureus GC 6335; GC6335, pre-incubation in human serum | S. aureus GC 6335; GC6335, pre-incubation in water | E. faecalis GC 2267; GC2267, pre-incubation in human serum | E. faecalis GC 2267; GC2267, pre-incubation in mouse serum | S. pneumoniae+ GC 4465; pre-incubation in human serum | S. pneumoniae+ GC 4465; pre-incubation in water | E. faecium GC 2243; GC2243, pre-incubation in human serum | E. faecium GC 2243; GC2243, pre-incubation in mouse serum | E. faecium GC 2243; GC2243, pre-incubation in water | S. aureus GC 6466; GC6466, pre-incubation in human serum | S. aureus GC 6466; GC6466, pre-incubation in mouse serum | S. epidermidis GC 4935; GC4935, pre-incubation in human serum | S. epidermidis GC 4935; GC4935, pre-incubation in mouse serum | S. epidermidis GC 4935; GC4935, pre-incubation in water | S. aureus GC 2216; GC2216, pre-incubation in human serum | S. aureus GC 2216; GC2216, pre-incubation in mouse serum | S. aureus GC 2216; GC2216, pre-incubation in water
16 µg/mL: S. typhimurium GC 2172; pre-incubation in human serum
>64 UG/ML: c. albicans GC 3066; pre-incubation in human serum | c. albicans GC 3066; pre-incubation in mouse serum
> 64 µg/mL: S. typhimurium GC 2172; pre-incubation in water | c. albicans GC 3066; Candida albicans, GC3066
2 µg/mL: S. typhimurium GC 2172; pre-incubation in mouse serum | E. coli GC 2232; GC2232, pre-incubation in human serum | E. coli GC 2234; GC2234, pre-incubation in human serum
1 µg/mL: S. aureus GC 1079; GC1079, pre-incubation in mouse serum | S. aureus GC 6335; GC6335, pre-incubation in mouse serum | E. faecalis GC 2267; GC2267, pre-incubation in water | S. pneumoniae+ GC 4465; pre-incubation in mouse serum | E. coli GC 2232; GC2232, pre-incubation in mouse serum | E. coli GC 3226; GC3226, pre-incubation in mouse serum | E. coli GC 2272; GC2272, pre-incubation in mouse serum | E. faecium GC 4556; GC4556, pre-incubation in human serum | E. faecium GC 4556; GC4556, pre-incubation in mouse serum | E. faecium GC 4556; GC4556, pre-incubation in water | E. coli GC 2234; GC2234, pre-incubation in mouse serum
